Measurements from ChEMBL document CHEMBL3885861, “Open TG-GATES”.

Species on record: Rattus norvegicus
Experiment: Open TG-GATES - Regimen: Single
Type: toxicity, organism-based, Sprague-Dawley
Design: regimen Single, gender Male, age 6 weeks
Details: in vivo, iv, route intravenous injection; for K / LDH / Na / PL / RALB / TBIL / TC / TG / TP / gamma-GTP / A/G / ALP / ALT / AST / BUN / CRE / Ca / Cl / DBIL / GLC / IP: tissue Plasma; for APTT / Bas / Eos / Fbg / Hb / Ht / Lym / MCH / MCHC / MCV / Mono / Neu / PT / Plat / RBC / Ret / WBC: tissue Blood; for KIDNEY_L / KIDNEY_R / KIDNEY_TOTAL: tissue Kidney; for LIVER: tissue Liver
[1] = 3 mg/kg, 3 h, dose level Middle
[2] = 3 mg/kg, 6 h, dose level Middle
[3] = 3 mg/kg, 9 h, dose level Middle
[4] = 3 mg/kg, 24 h, dose level Middle

`C[C@@H]1C[C@@H]([C@H](O)CC2CC(=O)NC(=O)C2)C(=O)[C@@H](C)C1` [CYCLOHEXIMIDE] showed a K (1 mg/kg, 24 h, dose level Low) of 4.4 meq/L, an LDH (1 mg/kg, 24 h, dose level Low) of 149.2 IU/L and a Na (1 mg/kg, 24 h, dose level Low) of 139.8 meq/L. The PL (1 mg/kg, 24 h, dose level Low) was 110.4 mg/dL, the RALB (1 mg/kg, 24 h, dose level Low) was 2.6 g/dL and the TBIL (1 mg/kg, 24 h, dose level Low) was 0.028 mg/dL. For the same compound, the TC (1 mg/kg, 24 h, dose level Low) was 51.4 mg/dL, the TG (1 mg/kg, 24 h, dose level Low) was 169.6 mg/dL and the TP (1 mg/kg, 24 h, dose level Low) was 4.6 g/dL. For the same compound, the gamma-GTP (1 mg/kg, 24 h, dose level Low) was 1.6 IU/L, the TERMINAL_BW [1] was 221.6 g and the APTT [1] was 22.4 s. The Bas [1] was 0%, the Eos [1] was 0.6% and the Fbg [1] was 296.6 mg/dL. For the same compound, the Hb [1] was 13.7 g/dL, the Ht [1] was 41.1% and the Lym [1] was 73.2%. The MCH [1] was 21.6 pg, the MCHC [1] was 33.4% and the MCV [1] was 64.6 fL. For the same compound, the Mono [1] was 0.8%, the Neu [1] was 24.8% and the PT [1] was 17.4 s. It also gave a Plat [1] of 132.2 x10_4/uL, an RBC [1] of 636.8 x10_4/ul and a Ret [1] of 9.2%. The WBC [1] was 217.3 x10_2/uL, the KIDNEY_L [1] was 1 g and the KIDNEY_R [1] was 1 g. The KIDNEY_TOTAL [1] was 2 g, the LIVER [1] was 9.6 g and the A/G [1] was 1.3. It also gave an ALP [1] of 1376.2 IU/L, an ALT [1] of 58 IU/L and an AST [1] of 140.8 IU/L. The BUN [1] was 32.6 mg/dL, the CRE [1] was 0.1 mg/dL and the Ca [1] was 9.8 mg/dL. It also gave a Cl [1] of 109.4 meq/L, a DBIL [1] of 0.004 mg/dL and a GLC [1] of 170.4 mg/dL. It also gave an IP [1] of 9.8 mg/dL, a K [1] of 4.7 meq/L and an LDH [1] of 364.6 IU/L. For the same compound, the Na [1] was 142.2 meq/L, the PL [1] was 80 mg/dL and the RALB [1] was 2.8 g/dL. The TBIL [1] was 0.018 mg/dL, the TC [1] was 59.4 mg/dL and the TG [1] was 52.4 mg/dL. The TP [1] was 5.1 g/dL, the gamma-GTP [1] was 2 IU/L and the TERMINAL_BW [2] was 221.4 g. For the same compound, the APTT [2] was 25.3 s, the Bas [2] was 0% and the Eos [2] was 0.4%. For the same compound, the Fbg [2] was 276 mg/dL, the Hb [2] was 14.1 g/dL and the Ht [2] was 42.1%. The Lym [2] was 60.4%, the MCH [2] was 21.2 pg and the MCHC [2] was 33.6%. For the same compound, the MCV [2] was 63.1 fL, the Mono [2] was 1% and the Neu [2] was 38%. The PT [2] was 21.1 s, the Plat [2] was 123.7 x10_4/uL and the RBC [2] was 668 x10_4/ul. For the same compound, the Ret [2] was 8.3%, the WBC [2] was 191.1 x10_2/uL and the KIDNEY_L [2] was 1 g. The KIDNEY_R [2] was 1 g, the KIDNEY_TOTAL [2] was 2 g and the LIVER [2] was 8.6 g. It also gave an A/G [2] of 1.4, an ALP [2] of 1008.6 IU/L and an ALT [2] of 63 IU/L. It also gave an AST [2] of 134.2 IU/L, a BUN [2] of 29.2 mg/dL and a CRE [2] of 0.1 mg/dL. For the same compound, the Ca [2] was 7.2 mg/dL, the Cl [2] was 104.2 meq/L and the DBIL [2] was 0.006 mg/dL. For the same compound, the GLC [2] was 139.6 mg/dL, the IP [2] was 11.6 mg/dL and the K [2] was 4.2 meq/L. The LDH [2] was 232.2 IU/L, the Na [2] was 138.2 meq/L and the PL [2] was 62.8 mg/dL. For the same compound, the RALB [2] was 2.8 g/dL, the TBIL [2] was 0.014 mg/dL and the TC [2] was 39.6 mg/dL. It also gave a TG [2] of 66.4 mg/dL, a TP [2] of 4.9 g/dL and a gamma-GTP [2] of 1.8 IU/L. The TERMINAL_BW [3] was 215.9 g, the APTT [3] was 27.9 s and the Bas [3] was 0%. For the same compound, the Eos [3] was 0.6%, the Fbg [3] was 255.2 mg/dL and the Hb [3] was 13.6 g/dL. It also gave a Ht [3] of 41%, a Lym [3] of 56.4% and an MCH [3] of 21.1 pg. For the same compound, the MCHC [3] was 33.1%, the MCV [3] was 63.7 fL and the Mono [3] was 1.2%. The Neu [3] was 41.8%, the PT [3] was 22.1 s and the Plat [3] was 117.3 x10_4/uL. It also gave an RBC [3] of 643 x10_4/ul, a Ret [3] of 7.8% and a WBC [3] of 199.4 x10_2/uL. It also gave a KIDNEY_L [3] of 1 g, a KIDNEY_R [3] of 1 g and a KIDNEY_TOTAL [3] of 1.9 g. For the same compound, the LIVER [3] was 8.6 g, the A/G [3] was 1.5 and the ALP [3] was 1011.2 IU/L. For the same compound, the ALT [3] was 51.4 IU/L, the AST [3] was 111 IU/L and the BUN [3] was 20.8 mg/dL. For the same compound, the CRE [3] was 0.1 mg/dL, the Ca [3] was 8 mg/dL and the Cl [3] was 105.6 meq/L. It also gave a DBIL [3] of 0.012 mg/dL, a GLC [3] of 151.6 mg/dL and an IP [3] of 8.9 mg/dL. The K [3] was 3.8 meq/L, the LDH [3] was 189.4 IU/L and the Na [3] was 139.4 meq/L. The PL [3] was 75.8 mg/dL, the RALB [3] was 2.8 g/dL and the TBIL [3] was 0.012 mg/dL. It also gave a TC [3] of 47.2 mg/dL, a TG [3] of 70.2 mg/dL and a TP [3] of 4.9 g/dL. The gamma-GTP [3] was 1 IU/L, the TERMINAL_BW [4] was 220.9 g and the APTT [4] was 30.4 s. The Bas [4] was 0%, the Eos [4] was 0% and the Fbg [4] was 293.6 mg/dL. It also gave a Hb [4] of 13.2 g/dL, a Ht [4] of 39.9% and a Lym [4] of 66.4%. It also gave an MCH [4] of 20.3 pg, an MCHC [4] of 33% and an MCV [4] of 61.6 fL. For the same compound, the Mono [4] was 1.4%, the Neu [4] was 30.8% and the PT [4] was 18.9 s. For the same compound, the Plat [4] was 112.9 x10_4/uL, the RBC [4] was 647.6 x10_4/ul and the Ret [4] was 5.3%. It also gave a WBC [4] of 276.2 x10_2/uL, a KIDNEY_L [4] of 1 g and a KIDNEY_R [4] of 1 g. For the same compound, the KIDNEY_TOTAL [4] was 2 g, the LIVER [4] was 9.6 g and the A/G [4] was 1.3. It also gave an ALP [4] of 739.4 IU/L, an ALT [4] of 25.2 IU/L and an AST [4] of 65.8 IU/L. It also gave a BUN [4] of 11 mg/dL and a CRE [4] of 0.2 mg/dL.
